In patent US11013719B2, “Sunitinib formulations and methods for use thereof in treatment of glaucoma” (The Johns Hopkins University, priority 2014, dated 2021):

Tests used:
immunopanned RGCs = assay: Survival of immunopanned primary RGCs in culture; type: cell-based, mice; details: for Neuroprotective (survival-promoting) activity on primary RGCs in culture: increasing doses, 72 hours in culture; for Toxicity in primary RGC culture: nanomolar doses
Procedure: All animal use was in accordance with ARVO Statement for the Use of Animals, and all the experimental procedures were performed in compliance with animal protocols approved by the IACUC at Johns Hopkins University. Retinas were isolated from postnatal 0-5 day mice and dissociated with papain. Microglia was immunodepleted with anti-CD11b conjugated Dynabeads. The suspension of retinal cells were immunopanned on plates pre-conjugated with anti-Thy1.2 antibody (Serotec, MCA028) and anti-mouse IgM at room temperature (RT). After washing, RGCs were released from the plate by a cell lifter, counted, and seeded at a density of 10,000 per well in 96-well plates in the media composed of Neurobasal, B27, N2 supplement, L-glutamine, and penicillin/streptomycin. […] Images were taken from portions of each well with Cellomics Kinetscan, and cell survival was quantified and calculated with the algorithms in Cellomics Neuroprofiling package. As indicated, RGC viability was alternatively measured by CellTiter-Glo luminescence (Promega).
For siRNA-based screening, the siRNAs from the Sigma Mission Mouse Kinome library were complexed with NeuroMag (Oz Biosciences) at a final concentration of 20 nM. […] Confirmatory siRNAs were obtained from both Dharmacon and Ambion. […] RGCs were cultured for 48 h, and cell viability was analyzed on a plate reader (ViewLux, Perkin Elmer) using the bioluminescent CellTiterGlo (Promega) assay. Concentration response curves were created using CurveFit (NIH NCATS).

optic nerve axons = assay: Rat laser-induced ocular hypertension (glaucoma model); type: in vivo, Wistar rats; details: for Neuroprotection in the glaucoma model: intravitreal PLGA microspheres / slow release formulation
Procedure: (§1) 6-week old male Wistar rats were anesthetized with ketamine/xylazine. A partial periotomy was made to expose the sclera. The injection site was approximately 1 mm posterior to the ora serrata, and the injection glass pipet was angled towards the optic disc in order to avoid lens injury. 5 μL (10 μg) of PLGA microspheres were injected with a glass pipet and Hamilton syringe.
Intraocular pressure (IOP) was unilaterally elevated by laser treatment of the trabecular meshwork as previously described^7. Briefly, 6-week old Wistar male rats were anesthetized with ketamine/xylazine. On two consecutive weeks, 40-50 532 nm diode laser spots were applied to the prelimbal region (50 μm diameter, 600 mW power and 0.6 seconds duration). Under anesthesia, the IOP of laser-treated and fellow eyes was measured with TonoLab one and three days after laser treatment. Four weeks following laser treatment, rats were perfused with 4% paraformaldehyde in phosphate buffer. Optic nerves were isolated, postfixed with 1% osmium tetroxide, embedded in epoxy resin and stained with 1% toluidine blue. Images from 10 random and nonoverlapping fields were taken with 100× oil phase contrast objective. The area of entire optic nerve cross-sections were imaged with 10× magnification, and used with axon counts from the 10 field to derive axon counts per nerve. The laser treatment and acquisition of optic nerve images were performed in a masked fashion.

RGCs [1] = assay: Rat optic nerve transection after intravitreal microspheres; type: in vivo, Wistar rats
Procedure: as §1
The optic nerve was exposed by a partial peritomy and intraorbital dissection of the extraocular muscles, and then transected with a 25-gauge needle. 4-Di-10-ASP were then applied to the proximal nerve stump. Care was taken to avoid vascular injury during the transection, and retinal perfusion was examined after nerve transection. Two weeks after transection, rats were sacrificed and enucleated. Retinas were flatmounted, imaged with confocal microscopy and the number of 4-Di-10-ASP-labeled cells with RGC morphology was quantified. Imaging and quantification of RGC survival were performed in a masked fashion.

DLK = DLK signaling in immunopanned RGCs (Western blot of phospho-MKK7 and phospho-JNK); type: cell-based, mice; details: same concentrations that increase RGC survival
Procedure: Western blots were performed according to the standard protocol. The following antibodies were from Cell Signaling Technology: Phospho-JNK, Thr183/Tyr185 (4671); JNK (9258); Phospho-MKK7 (4171), and MKK7 (4172). Monoclonal anti-alpha-tubulin antibody (T6074) was purchased from Sigma. DLK rabbit polyclonal was provided by S. Hirai.
To assess sunitinib's effect on DLK signaling in RGCs, immunopanned cells were cultured in the presence of increasing amounts of sunitinib.

[2] = Solubility of sunitinib in aqueous solution; type: physicochemical
kinases = details: at neuroprotective concentrations; cited from earlier work
RGCs [3] = assay: Whole-cell patch-clamp recordings from RGCs at two weeks in culture
Description: Recordings were made by using the whole-cell patch-clamp technique in both current- and voltage-clamp modes with an Axopatch 200B. Data were low-pass filtered at 1 kHz (Bessel) and sampled at 10 kHz. […] The recording pipette was filled with the following intracellular solution (in mM): 100 K-gluconate, 50 KCl, 20 HEPES, 10 EGTA, 5 MgCl2, 2 ATP, 0.1 GTP, pH adjusted to 7.33 with KOH. The cells were continuously perfused with (in mM): 140 NaCl, 5 KCl, 1 MgCl2, 2.5 CaCl2), 10 glucose, 10 HEPES, pH 7.4 with NaOH.
To determine whether the RGCs that are kept alive for extended periods with DLK siRNA or sunitinib treatment remain functional, patch-clamp recordings were performed at two weeks in culture.

For `O=C(c1ccc(/C=C/c2n[nH]c3ccccc23)cc1)N1CCNCC1` [KW-2449], the “Neuroprotective (survival-promoting) activity on primary RGCs in culture” value (“Neuroprotective” below) (immunopanned RGCs) was “promoted the survival of primary RGCs in culture”.

In the case of `CCN(CC)CCNC(=O)c1c(C)[nH]c(/C=C2\C(=O)Nc3ccc(C(=O)N(C)C)cc32)c1C` [SR8165], the DLK toxicity (immunopanned RGCs) is reported as “reduced DLK toxicity”, the “Neuroprotective” value (immunopanned RGCs) is reported as “greater efficacy in vitro” and the “Neuroprotection in the glaucoma model” value (optic nerve axons) is reported as “conferred similar neuroprotection”.

For `CN(C)S(=O)(=O)c1ccc2c(c1)/C(=C/c1cc3c([nH]1)CCCC3)C(=O)N2` [SU6656], the “Neuroprotective” value (immunopanned RGCs) was “neuroprotective”.

With `CCN(CC)CCNC(=O)c1c(C)[nH]c(/C=C2\C(=O)Nc3ccc(F)cc32)c1C` [Sunitinib] the “Neuroprotective” value (immunopanned RGCs) was “dose-dependent increase in the viability of primary RGCs”, the “Increase in surviving RGCs compared to control animals” value (RGCs [1]; intravitreal PLGA microspheres 7 days before transection, two weeks post-transection) was 3-4 fold and the “Reduction of optic nerve axon loss” value (optic nerve axons; intravitreal drug-eluting microspheres, one month, p<0.05) was 40%. The “Phosphorylation of targets downstream of DLK, including MKK7 and JNK” value (DLK) was “decrease in the phosphorylation”, the “Solubility in aqueous solution” value [2] was “pH dependent” and the “Number of kinases inhibited” value (kinases) was ~200 kinases. For the same compound, the “Functionality of RGCs kept alive for extended periods” value (RGCs [3]) was “conducted action potentials in response to depolarizing current and were responsive to exogenously applied glutamate”.

In the case of `COc1cc(N2CCC(N3CCN(C)CC3)CC2)ccc1Nc1ncc(Cl)c(Nc2ccccc2S(=O)(=O)C(C)C)n1` [TAE-684], the “Toxicity in primary RGC culture” value (immunopanned RGCs) is reported as “limited by toxicity at nanomolar doses”.

With `Cc1cc(Nc2cc(N3CCN(C)CC3)nc(Sc3ccc(NC(=O)C4CC4)cc3)n2)[nH]n1` [Tozasertib, tozasertib] the “Neuroprotective” value (immunopanned RGCs) was “promoted the survival of primary RGCs in culture”, the “Protection of RGCs in the optic nerve transection model” value (RGCs [1]; intravitreal slow release formulation) was “protected RGCs” and the “Neuroprotection in the glaucoma model” value (optic nerve axons) was “protected RGCs”.

In the case of `C[C@@H](Oc1cc(-c2cnn(C3CCNCC3)c2)cnc1N)c1c(Cl)ccc(F)c1Cl` [crizotinib], the “Neuroprotective” value (immunopanned RGCs) is reported as “promoted the survival of primary RGCs in culture”.

In the case of `COc1cc2c(Oc3ccc(NC(=O)C4(C(=O)Nc5ccc(F)cc5)CC4)cc3F)ccnc2cc1OCCCN1CCOCC1` [foretinib], the “Neuroprotective” value (immunopanned RGCs) is reported as “promoted the survival of primary RGCs in culture”.

For `Cc1ccc(NC(=O)c2ccc(CN3CCN(C)CC3)cc2)cc1Nc1nccc(-c2cccnc2)n1` [imatinib], the “Neuroprotective” value (immunopanned RGCs) was “lack neuroprotective activity”.

With `CCOc1cc2ncc(C#N)c(Nc3ccc(OCc4ccccn4)c(Cl)c3)c2cc1NC(=O)/C=C/CN(C)C` [neratinib] the “Toxicity in primary RGC culture” value (immunopanned RGCs) was “limited by toxicity at nanomolar doses”.

For `CNC(=O)c1cc(Oc2ccc(NC(=O)Nc3ccc(Cl)c(C(F)(F)F)c3)cc2)ccn1` [sorafenib], the “Neuroprotective” value (immunopanned RGCs) was “lack neuroprotective activity”.

With `Clc1ccc(Nc2nnc(Cc3ccncc3)c3ccccc23)cc1` [vatalanib] the “Neuroprotective” value (immunopanned RGCs) was “lack neuroprotective activity”.

In the case of lestautinib, the “Neuroprotective” value (immunopanned RGCs) is reported as “promoted the survival of primary RGCs in culture”.
